Results reported in ChEMBL document CHEMBL4049447 (J Med Chem, 2017).

Key:
[1] = Apparent permeability across basolateral to apical side in human Caco2 cells assessed as drug recovery at 10 uM measured up to 2 hrs by ESI-LC/MS/MS analysis; format: ADME, cell-based; conditions: Caco-2, read-out: Drug recovery
[2] = Apparent permeability across apical to basolateral side in human Caco2 cells assessed as drug recovery at 10 uM measured up to 2 hrs by ESI-LC/MS/MS analysis; format: ADME, cell-based; conditions: Caco-2, read-out: Drug recovery

recovery at 2 h, 10 µM [1]: 103% | recovery at 2 h, 10 µM [2]: 63%
Structure (SMILES): Nc1ccc2ccc(CCNCCc3cccc(Cl)c3)cc2n1
